Test results as given in ChEMBL document CHEMBL3507680, “University of Dundee, Gates Library screen for HepG2 cell viability”.

Experiment: Human HepG2 cell viability assay in 384 well format
Format: toxicity, cell-based
Set-up: dose 125 nL, time 70.5 hour; concentration not given beside the values
Settings: HepG2 cells, read-out: Inhibition

| SMILES | cytotoxicity at 70.5 h [%] |
| --- | --- |
| FC(F)(F)c1cccc(CN2CCOC[C@H](Oc3cccnc3)C2)c1 | -1.63 |
| CS(=O)(=O)NC[C@H]1Cn2c(-c3ccc(F)cc3)cnc2CO1 | -3.71 |
| CS(=O)(=O)NC[C@H]1Cn2c(-c3ccc(Cl)cc3)cnc2CO1 | -7.36 |
| O=C(NC[C@H]1Cn2c(-c3ccccc3)cnc2CO1)C1CC1 | -7.19 |
| CC(C)(C)CN[C@@H]1CO[C@H](CNC(=O)Nc2ccccc2)[C@H]1O | -1.92 |
| c1cc(CN2CCOC[C@H]2c2nc(-c3ccncc3)c[nH]2)ccn1 | 1.86 |
| CC(C)(C)c1c[nH]c([C@@H]2COCCN2C2CCCCC2)n1 | -0.143 |
| c1cncc(-c2c[nH]c([C@@H]3COCCN3Cc3ccncc3)n2)c1 | 1.27 |
| CC(=O)N1CCC(N2CCOC[C@H]2c2nc(-c3ccncc3)c[nH]2)CC1 | -0.136 |
| O=C1CCC2(CCCN(C(=O)c3cccs3)C2)N1 (stereo unspecified) | 35.1 |
| CC(=O)N1CCC2(CC1)CN(C(=O)c1ccc3c(c1)OCO3)C2 | 5.17 |
| CNC(=O)CN1C(=O)CCC12CCCN(Cc1ccccc1F)C2 (stereo unspecified) | 6.16 |
| CNC(=O)CN1C(=O)CCC12CCCN(Cc1ccccn1)C2 (stereo unspecified) | 2.52 |
| O=C(N[C@]12CC1CN(C(=O)c1ccco1)C2)c1ccoc1 (stereo partly specified) | -7.38 |
| CC(C)CN1C[C@@H]2C(=O)NC3(CCN(C(=O)c4cccnc4)CC3)[C@@H]2C1 | -9.79 |
| O=S(=O)(c1ccc(Cl)cc1)N1C[C@@H]2CCN[C@@H]2C1 | -6.26 |
| CNC(=O)CN1C(=O)CCC12CCCN(CCc1ccccc1)C2 (stereo unspecified) | 27.8 |
| O=C(CC1CCCC1)N1C[C@@H]2C[C@H]1CN2 | -3.6 |
| COCCN1C[C@@H]2CN(S(=O)(=O)c3cccs3)C[C@@H]2C1=O | -8.88 |
| CC(C)CN1C[C@@H]2CN(S(=O)(=O)c3cccs3)C[C@@H]2C1=O | -10.3 |
| O=C(c1cc(F)cc(F)c1)N1C[C@H]2CNC[C@H]2C1 | -13.4 |
| CCN1C(=O)CC[C@@H]2[C@H]1CCN2S(=O)(=O)c1cccs1 | -4.53 |

| SMILES | cytotoxicity at 70.5 h [%] |
| --- | --- |
| O=C1[C@H]2CN(S(=O)(=O)c3cccs3)C[C@H]2CN1CC1CC1 | -2.27 |
| C[C@H]1C[C@H]2CN(C(=O)C3=CCCC3)CC[C@H]2O1 | -9.81 |
| CC(C)CNC(=O)N1C[C@@H]2CCCN[C@@H]2C1 | -8.84 |
| CC(C)C(=O)N1CCC2(CC1)NC(=O)[C@H]1CN(C(=O)N(C)C)C[C@H]12 | -11.8 |
| CC(=O)N1CCCC2(CCN(C(=O)c3nccnc3N)CC2)C1 | 26.1 |
| CC(=O)N1CCCC2(C1)CN(C(=O)C1CCCCC1)CCO2 (stereo unspecified) | 23.5 |
| CC(=O)N1CCC2(CCCN(C(=O)CCN3CCCCC3)C2)C1 (stereo unspecified) | 20.2 |
| CC(=O)N1CCCC2(CCN(c3ccccc3)C2=O)C1 (stereo unspecified) | 12.8 |
| CN(C)C(=O)CN1CCC2(CCN(C(=O)N(C)C)CC2)C1=O | 17 |
| CCOCC(=O)N1CCCC2(CCN(c3ccccc3)C2=O)C1 (stereo unspecified) | -8.08 |
| CN1C(=O)CCC12CCN(Cc1ccco1)CC2 | -12.2 |
| CC(C)NC(=O)N1CCCC2(CCN(c3ccccc3)C2=O)C1 (stereo unspecified) | -7.73 |
| O=C(c1ccc[nH]1)N1CCOCC2(C1)CN(c1ccccc1)C(=O)CO2 (stereo unspecified) | -9.1 |
| CC(C)CCN1C2(CCN(C(=O)C3(C)CC3)C2)c2ccccc2S1(=O)=O (stereo unspecified) | -9.44 |
| CS(=O)(=O)N1CCc2sc(C(=O)NCCc3ccccn3)cc21 | -10.9 |
| CN(C)C(=O)CNC(=O)c1cc2c(s1)CCN2S(C)(=O)=O | -10.7 |
| COCCNC(=O)c1cc2c(s1)CCN2S(C)(=O)=O | -6.66 |
| CC(C)CCN1C2(CCN(c3ncccn3)C2)c2ccccc2S1(=O)=O (stereo unspecified) | -11.6 |
| Fc1cnc(N2CCO[C@H]3CN(CC4CCOC4)C[C@H]32)nc1 (stereo partly specified) | 26.2 |
| Cc1ccc(CN2CC3(CCN(C(=O)Cc4ccc(Cl)cc4)C3)C2)o1 | -5.73 |
| CC[C@@H]1N(Cc2ccccn2)CCC[C@]12CCC(=O)N2CCOC | -5.82 |
| CC(C)NC(=O)[C@]12COC[C@H]1CN(Cc1cnn(C)c1)C2 | -4.74 |

| SMILES | cytotoxicity at 70.5 h [%] |
| --- | --- |
| COC(=O)CCC(=O)N1CCC2(CN(Cc3ccccc3F)C2)C1 | -7.6 |
| CC(C)NC(=O)NC[C@@]1(COc2cnccn2)C[C@@H](O)[C@@H](O)C1 | 3.08 |
| C[C@@H](NC(=O)c1cnccn1)c1c(-c2ccc(Cl)cc2)noc1C(=O)O | -5.53 |
| O=C(NCC1CCC2(CCNCC2)O1)C1CC1 (stereo unspecified) | 2.18 |
| O=C(NCC1CCCCC1)N1C[C@@H]2C[C@H]1CN2 | -7.03 |
| CN(Cc1ccco1)C1CCC12CCN(C(=O)C1CCOCC1)CC2 (stereo unspecified) | -3.65 |
| CN(Cc1ccco1)C1CCC12CCN(C(=O)N1CCCC1)CC2 (stereo unspecified) | -7.66 |
| COCc1nn(CC2CC2)c2c1CN(Cc1ccco1)CC2 | -8.39 |
| O=C1CC2(CNCCN(C(=O)Nc3ccccc3)C2)CN1 (stereo unspecified) | -9.89 |
| Cc1ccc(CN2CCCC3(CCC(=O)N3)CC2)s1 (stereo unspecified) | -7.87 |
| CN1C(=O)C2(CCN(Cc3nccn3C)CC2)c2ccccc21 | -4.36 |
| O=C(c1ccco1)N1C[C@@H]2CN(c3ccccn3)C[C@@H]2C1 | -0.814 |
| CCN1CCC12CCN(C(=O)c1cc(C)on1)C2 (stereo unspecified) | -2.64 |
| Cc1cc(C(=O)N2CCC3(CCN3Cc3ccc(F)cc3)C2)no1 (stereo unspecified) | -3.92 |
| O=C1CCC2(CCCN(Cc3ccccc3F)C2)N1CC1CC1 (stereo unspecified) | -2.34 |
| O=S(=O)(c1cccs1)N1CC[C@H]2[C@H]1CCN2c1ncccn1 | -4.67 |
| CCN1CC[C@@]2(C(=O)N3CCOCC3)CCN(C(=O)CC(C)C)CC[C@@H]12 | -2.66 |
| CC(C)CN1CC[C@@H]2[C@@H]1CCN2S(=O)(=O)c1cccs1 | -18 |
| CCN1C(=O)C(c2ccccc2)CC12CCN(CCO)CC2 (stereo unspecified) | -13.9 |
| COCc1nn(C)c2c1CCN(Cc1cnn(C)c1)C2 | -5.93 |
| CCN1CC[C@@]2(C(=O)N3CCCC3)CCN(S(C)(=O)=O)CC[C@@H]12 | -8.95 |
| CCN1CC[C@@]2(C(=O)N(C)C)CCN(C(=O)Cc3ccccc3)CC[C@@H]12 | -8.1 |

| SMILES | cytotoxicity at 70.5 h [%] |
| --- | --- |
| CCN1CC[C@@]2(C(=O)N3CCOCC3)CCN(S(=O)(=O)CC)CC[C@@H]12 | 3.2 |
| COCCN1CCC2(CC1)CN(C(=O)c1cccs1)CCO2 | 33.9 |
| CN(C)C(=O)CN1CCC2(CCN(CC3CC3)CC2)C1=O | 9.87 |
| c1coc(CN2CCC3(CC2)COC(COCC2CC2)C3)c1 (stereo unspecified) | 15.1 |
| CN1C(=O)CCCC12CCCN(Cc1cccs1)C2 (stereo unspecified) | -6.68 |
| COCCN1CCC2(CC1)CN(C(=O)c1ccccc1)CCO2 | -5.3 |
| CN(C)CC(=O)N1CCCC2(CCN(c3ccccc3)C2=O)C1 (stereo unspecified) | -9.67 |
| N#Cc1ccc(C(=O)N2CC[C@H]3[C@H]2CCN3CC2CC2)cc1 | -10.6 |
| C[C@@H]1CN(CCc2ccccc2)C[C@]12CCN(CC(=O)N(C)C)C2=O | -12.6 |
| O=C(Cc1cccc(F)c1)N1C[C@H]2CN(Cc3ccccn3)C[C@H]2C1 | -6.98 |
| COCCC(=O)N1CCOCC2(CCN(Cc3cccs3)C2)C1 (stereo unspecified) | -12.3 |
| CC1c2ncc(CNC(=O)C3CC3)n2CCN1CC1CCC1 (stereo unspecified) | -10.3 |
| O=C([C@H]1C[C@@H]2CCN(c3cccc(F)c3)C[C@H]2O1)N1CCCCO1 | -13.4 |
| CC[C@@H]1N(Cc2ccc(OC)cc2)CCC[C@]12CCC(=O)N2CCOC | 16.8 |
| CS(=O)(=O)NC[C@@H]1OC[C@H]2CN(Cc3ccsc3)CC[C@H]21 | 18.6 |
| CC[C@@H]1N(Cc2ccc(F)cc2)CCC[C@]12CCC(=O)N2CCOC | 10.3 |
| Fc1cnc(N2CCO[C@H]3CN(CC4CCCCC4)C[C@H]32)nc1 | 17.9 |
| CC(C)C(=O)NC1COC2(CCN(Cc3cccnc3)CC2)C1 (stereo unspecified) | -10.3 |
| CCN1C(=O)C(c2ccccc2)CC12CCN(Cc1cccnc1)CC2 (stereo unspecified) | -7.6 |
| COc1ccc(CN2C[C@H]3C[C@H](CN(C)C)O[C@H]3C2)cc1 | -5.86 |
| Cc1cnc(N2CC3(CCN(Cc4cccnc4)C3)C2)nc1 | -13.4 |
| COCCN1CCC2(CC1)CN(C(=O)Cc1cccnc1)CCO2 | -5.95 |

| SMILES | cytotoxicity at 70.5 h [%] |
| --- | --- |
| O=C1[C@H]2CN(Cc3ccccc3)C[C@H]2CN1CCN1CCCC1 | -8.49 |
| Fc1cccc(CN2C[C@@H]3CN(Cc4ccccn4)C[C@@H]3C2)c1 | -5.09 |
| O=C1[C@H]2CN(Cc3ccc(F)cc3)C[C@H]2CN1CCN1CCCC1 | 12.5 |
| Cc1ccc(CN2Cc3ccnn3CC(C(=O)NCC3CC3)C2)o1 (stereo unspecified) | -13.3 |
| CN(C)CCN1CCOCC12CCN(C(=O)C1CC1)CC2 | -10.1 |
| CN(C)CCOCc1nnc2n1CCN(Cc1ccoc1)CC2 | 36.2 |
| CN(C)CCOCc1nnc2n1CCN(Cc1ccc(F)cc1)CC2 | 23.8 |
| c1cncc(-c2ncnc3c2CCN(Cc2ccsc2)CC3)c1 | 19.2 |
| CN(C)C(=O)COCC1CN(Cc2cccs2)Cc2ncn(C)c21 (stereo unspecified) | 17.3 |
| CN(C)C(=O)COCC1CN(C2CCC2)Cc2ncn(C)c21 (stereo unspecified) | 22.5 |
| c1cncc(-c2ncnc3c2CCN(Cc2cccs2)CC3)c1 | 16.4 |
| CN(C)C(=O)COCC1CN(Cc2ccoc2)Cc2ncn(C)c21 (stereo unspecified) | -3.96 |
| c1cnc(N2CCO[C@H]3CN(CC4CC4)C[C@H]32)nc1 | -8.99 |
| CN(Cc1cccnc1)Cc1cn2c(n1)CN(C1CCOC1)CC2 (stereo unspecified) | -6.14 |
| O=C(NCc1ccccn1)[C@]12COC[C@H]1CN(Cc1cccnc1)C2 | -7.77 |
| Cc1ccc(CN2CC[C@@H]3[C@@H](CO[C@H]3CN3CCN(C)CC3)C2)s1 | 14.3 |
| Cc1ccc(CN2CC[C@@H]3[C@@H](CO[C@H]3CN3CCN(C)CC3)C2)cc1 | -0.515 |
| CN1CCN(Cc2cnc3n2CCN(Cc2cccnc2)CC3)CC1 | -1.41 |
